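Briefly, cells in 96-well plates were exposed to five compound concentrations for 48 h, and endpoints were estimated by linear interpolation. GI50: concentration for 50% inhibition of growth.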 Calls of active or inactive are those of the source. No stated cut-off is given here; in the data, active = GI50 up to about 1.1 µM and inactive = higher.
Assays:
Assay in all cases: NCI-60 cell line screen, 48 h
MOLT-4 = tested on: MOLT-4
EKVX = tested on: EKVX
MDA-MB-435 = tested on: MDA-MB-435
786-0 = tested on: 786-0
Malme-3M = tested on: Malme-3M
PC-3 = tested on: PC-3
U-251 = tested on: U-251
OVCAR-3 = tested on: OVCAR-3
K562 = tested on: K562
M14 = tested on: M14
SN12C = tested on: SN12C
TK-10 = tested on: TK-10
SK-MEL-2 = tested on: SK-MEL-2
OVCAR-8 = tested on: OVCAR-8
BT-549 = tested on: BT-549
OVCAR-5 = tested on: OVCAR-5
NCI-H23 = tested on: NCI-H23
DU-145 = tested on: DU-145
HCC 2998 = tested on: HCC 2998

Measured: GI50

O=C1CCC(Cc2ccc(Cl)cc2Cl)C(=O)N1 (configuration not stated)
inactive: MOLT-4 59.7 µM | EKVX 65 µM | MDA-MB-435 > 100 µM | 786-0 > 100 µM | Malme-3M > 100 µM | PC-3 > 100 µM | U-251 > 100 µM | OVCAR-3 > 100 µM | K562 > 100 µM | M14 > 100 µM | SN12C > 100 µM | TK-10 > 100 µM | SK-MEL-2 > 100 µM | OVCAR-8 > 100 µM | BT-549 28.6 µM | OVCAR-5 > 100 µM | NCI-H23 > 100 µM | DU-145 > 100 µM

C[C@@H](c1ccccc1)n1c(N)c(C#N)c2ccc([N+](=O)[O-])cc2c1=O
inactive: MDA-MB-435 14.2 µM | 786-0 15 µM | PC-3 > 100 µM | U-251 18.7 µM | HCC 2998 15.5 µM | K562 12.8 µM | SN12C 12 µM | TK-10 11.6 µM | SK-MEL-2 > 100 µM | OVCAR-8 12 µM | BT-549 1.69 µM | NCI-H23 18.9 µM | DU-145 15.9 µM

Cc1ccc(NC(S)=Nc2c(C)n(C)n(-c3ccccc3)c2=O)cc1
inactive: MOLT-4 87.9 µM | EKVX > 100 µM | MDA-MB-435 > 100 µM | 786-0 > 100 µM | Malme-3M > 100 µM | PC-3 > 100 µM | U-251 > 100 µM | HCC 2998 > 100 µM | OVCAR-3 > 100 µM | K562 > 100 µM | M14 > 100 µM | TK-10 > 100 µM | OVCAR-8 > 100 µM | BT-549 > 100 µM | OVCAR-5 > 100 µM | NCI-H23 > 100 µM | DU-145 > 100 µM

O=C(c1ccc([N+](=O)[O-])cc1)C(Br)C(Br)c1ccnc2ccccc12 (configuration not stated)
inactive: MOLT-4 2.94 µM | EKVX 8.79 µM | MDA-MB-435 2.98 µM | 786-0 2.54 µM | Malme-3M 12.5 µM | PC-3 7.29 µM | U-251 1.75 µM | OVCAR-3 6.32 µM | K562 2.83 µM | M14 2.8 µM | SN12C 4.46 µM | TK-10 4.58 µM | SK-MEL-2 12.6 µM | OVCAR-8 9.08 µM | BT-549 7.59 µM | OVCAR-5 16.5 µM | NCI-H23 2.55 µM | DU-145 11.8 µM

O=C(OC1CN2CCC1CC2)N(c1ccccc1)c1ccccc1 (configuration not stated)
inactive: MOLT-4 43.1 µM | EKVX > 100 µM | MDA-MB-435 > 100 µM | 786-0 > 100 µM | Malme-3M > 100 µM | PC-3 69.2 µM | U-251 > 100 µM | OVCAR-3 > 100 µM | K562 24.9 µM | M14 22.9 µM | SN12C > 100 µM | TK-10 56.2 µM | SK-MEL-2 > 100 µM | OVCAR-8 > 100 µM | BT-549 > 100 µM | OVCAR-5 > 100 µM | NCI-H23 > 100 µM | DU-145 > 100 µM

CCCCCCCC(CC(=O)NC(CO)C(=O)NC(CO)CC(C)C)OC(=O)CC(CCCCCCC)OC(=O)CC(CCCCCCC)OC1OC(C)C(O)C(OC2OC(C)C(O)C(O)C2OC(C)=O)C1O (configuration not stated)
inactive: MOLT-4 2.54 µM | EKVX 14.3 µM | MDA-MB-435 2.75 µM | 786-0 5 µM | Malme-3M 10.9 µM | PC-3 4.06 µM | U-251 7.03 µM | HCC 2998 12.5 µM | OVCAR-3 12.9 µM | K562 4.13 µM | M14 5.69 µM | SN12C 4.47 µM | TK-10 13.3 µM | OVCAR-8 7.35 µM | BT-549 12.5 µM | OVCAR-5 10.3 µM | NCI-H23 7.8 µM | DU-145 10.6 µM

Reference: ChEMBL document CHEMBL1201862, “PubChem BioAssay data set” (2004)
